Laboratory results published in patent US20230023092A1, “TREATMENT OF DEPRESSION AND OTHER VARIOUS DISORDERS WITH PSILOCYBIN” (COMPASS […], priority 2019, published 2023).

Test system: healthy subjects
Experiment: Phase 1 study: adverse events (TEAEs, MedDRA coded)
Assay type: in vivo, human
Details: 25 mg oral
Method: A Phase 1 randomized, double-blind, placebo-controlled study to evaluate the effect of psilocybin on cognitive and emotional processing as compared to placebo in healthy volunteers was conducted. The study investigated the short-term (Day 7) and long-term (Day 28) effects of moderate (10 mg) and high doses (25 mg) of psilocybin on key domains of cognition, such as episodic memory, attention, working and spatial memory, social cognition and elements of executive function, including cognitive flexibility.
Each subject was assigned 1 treatment bottle containing 5 capsules packaged in a double-blind fashion, depending on the randomized treatment arm, the bottle contained one of the following: • a. Psilocybin 10 mg: 2×5-mg oral psilocybin capsules plus 3×placebo capsules • b. Psilocybin 25 mg: 5×5-mg oral psilocybin capsules • c. Placebo: 5×placebo capsules
Each 5-mg oral psilocybin capsules comprised 5 mg crystalline psilocybin in the form or Polymorph A, 12.5 mg of SMCC 50, 79.5 mg of SMCC 90, 1 mg sodium starch glycolate, 1 mg colloidal silicon dioxide, and 1 mg sodium stearyl fumarate
Adverse events: Throughout the course of the study, all AEs were monitored and recorded. Each AE was classified according to the following criteria: • i. […] Moderate: The AE produces some impairment of functioning, but is not hazardous to the subject's health. • iii. Severe: The AE produces significant impairment of functioning or incapacitation and is a definite hazard to the subject's health.
Visit 3 (V3): Drug Administration (Day 0): The subject was asked to eat a light breakfast at least two hours prior to coming to the clinic for study drug administration. On Day 0 (V3), the subject underwent the SSTS, had vital signs obtained, medications reviewed, AEs recorded and eligibility reviewed prior to being randomized to study drug. The study drug was administered to up to six subjects simultaneously in individual beds separated by a curtain. The subject was invited to put on eyeshades and headphones, lie down and listen to calming music for the rest of the session (six hours). The subject was supported 1:1 with a chaperone and supervised by the study psychiatrist and lead therapist.
During administration of psilocybin, each subject received one-on-one support from a trained assisting therapist and each dosing session was supervised by a study psychiatrist and a lead therapist. The study drug was administered simultaneously to up to six participants as a single 5-capsule oral dose (10 mg psilocybin: 2×5-mg psilocybin capsules plus 3×placebo capsules; 25 mg psilocybin: 5×5-mg psilocybin capsules; placebo: 5×placebo capsules). Twenty-five dosing sessions were completed, with up to six participants dosed simultaneously per session. Each session lasted approximately 6 to 8 hours with subjects encouraged to relax and engage in introspection for the duration. After the acute effects of the study drug had subsided, subjects were discharged.

CN(C)CCc1c[nH]c2cccc(OP(=O)(O)O)c12 [Psilocybin, psilocybin]
Affect lability, N (%): 3 (10.0) | Affect lability, worst severity Mild, Events: 2 | Affect lability, worst severity Mild, N (%): 2 (6.7) | Affect lability, worst severity Moderate, Events: 1 | Affect lability, worst severity Moderate, N (%): 1 (3.3) | Affect lability, worst severity Severe, Events: 0 | Affect lability, worst severity Severe, N (%): 0 | Any Selected TEAE, Events: 106 | Any Selected TEAE, N (%): 27 (90.0) | Any TEAE leading to death, Events: 0 | Any TEAE leading to death, N (%): 0 | Any TEAE leading to study discontinuation, Events: 0 | Any TEAE leading to study discontinuation, N (%): 0 | Any TEAE related to study treatment, Events: 208 | Any TEAE related to study treatment, N (%): 29 (96.7) | Any TEAE, Events: 217 | Any TEAE, N (%): 29 (96.7) | Any TEAE, worst severity Mild, Events: 14 | Any TEAE, worst severity Mild, N (%): 3 (10.0) | Any TEAE, worst severity Moderate, Events: 52 | Any TEAE, worst severity Moderate, N (%): 16 (53.3) | Any TEAE, worst severity Severe, Events: 29 | Any TEAE, worst severity Severe, N (%): 10 (33.3) | Any serious TEAE related to study treatment, Events: 0 | Any serious TEAE related to study treatment, N (%): 0 | Any serious TEAE, Events: 0 | Any serious TEAE, N (%): 0 | Any severe TEAE, Events: 29 | Any severe TEAE, N (%): 10 (33.3) | Change in sustained attention, Events: 0 | Change in sustained attention, N (%): 0 | Depressed mood, Events: 2 | Depressed mood, N (%): 2 (6.7) | Dissociative identity disorder, Events: 2 | Dissociative identity disorder, N (%): 2 (6.7) | Emotional disorder, Events: 6 | Emotional disorder, N (%): 5 (16.7) | Emotional disorder, worst severity Mild, Events: 1 | Emotional disorder, worst severity Mild, N (%): 1 (3.3) | Emotional disorder, worst severity Moderate, Events: 5 | Emotional disorder, worst severity Moderate, N (%): 4 (13.3) | Emotional disorder, worst severity Severe, Events: 0 | Emotional disorder, worst severity Severe, N (%): 0 | Euphoric mood, Events: 8 | Euphoric mood, N (%): 7 (23.3) | Euphoric mood, worst severity Mild, Events: 3 | Euphoric mood, worst severity Mild, N (%): 3 (10.0) | Euphoric mood, worst severity Moderate, Events: 4 | Euphoric mood, worst severity Moderate, N (%): 4 (13.3) | Euphoric mood, worst severity Severe, Events: 0 | Euphoric mood, worst severity Severe, N (%): 0 | Fatigue, Events: 8 | Fatigue, N (%): 8 (26.7) | Fatigue, worst severity Mild, Events: 3 | Fatigue, worst severity Mild, N (%): 3 (10.0) | Fatigue, worst severity Moderate, Events: 5 | Fatigue, worst severity Moderate, N (%): 5 (16.7) | Fatigue, worst severity Severe, Events: 0 | Fatigue, worst severity Severe, N (%): 0 | Feeling abnormal, Events: 0 | Feeling abnormal, N (%): 0 | Feeling abnormal, worst severity Mild, Events: 0 | Feeling abnormal, worst severity Mild, N (%): 0 | Feeling abnormal, worst severity Moderate, Events: 0 | Feeling abnormal, worst severity Moderate, N (%): 0 | Feeling abnormal, worst severity Severe, Events: 0 | Feeling abnormal, worst severity Severe, N (%): 0 | Feeling of relaxation, Events: 1 | Feeling of relaxation, N (%): 1 (3.3) | Gastrointestinal disorders, Events: 5 | Gastrointestinal disorders, N (%): 5 (16.7) | Gastrointestinal disorders, worst severity Mild, Events: 4 | Gastrointestinal disorders, worst severity Mild, N (%): 4 (13.3) | Gastrointestinal disorders, worst severity Moderate, Events: 1 | Gastrointestinal disorders, worst severity Moderate, N (%): 1 (3.3) | Gastrointestinal disorders, worst severity Severe, Events: 0 | Gastrointestinal disorders, worst severity Severe, N (%): 0 | General disorders and administration site conditions, Events: 18 | General disorders and administration site conditions, N (%): 15 (50.0) | General disorders and administration site conditions, worst severity Mild, Events: 8 | General disorders and administration site conditions, worst severity Mild, N (%): 8 (26.7) | General disorders and administration site conditions, worst severity Moderate, Events: 7 | General disorders and administration site conditions, worst severity Moderate, N (%): 6 (20.0) | General disorders and administration site conditions, worst severity Severe, Events: 1 | General disorders and administration site conditions, worst severity Severe, N (%): 1 (3.3) | Hallucination, Events: 2 | Hallucination, N (%): 2 (6.7) | Hallucination, auditory, Events: 4 | Hallucination, auditory, N (%): 4 (13.3) | Hallucination, auditory, worst severity Mild, Events: 1 | Hallucination, auditory, worst severity Mild, N (%): 1 (3.3) | Hallucination, auditory, worst severity Moderate, Events: 3 | Hallucination, auditory, worst severity Moderate, N (%): 3 (10.0) | Hallucination, auditory, worst severity Severe, Events: 0 | Hallucination, auditory, worst severity Severe, N (%): 0 | Hallucination, gustatory, Events: 0 | Hallucination, gustatory, N (%): 0 | Hallucination, olfactory, Events: 1 | Hallucination, olfactory, N (%): 1 (3.3) | Hallucination, tactile, Events: 4 | Hallucination, tactile, N (%): 4 (13.3) | Hallucination, visual, Events: 22 | Hallucination, visual, N (%): 21 (70.0) | Hallucination, visual, worst severity Mild, Events: 3 | Hallucination, visual, worst severity Mild, N (%): 3 (10.0) | Hallucination, visual, worst severity Moderate, Events: 13 | Hallucination, visual, worst severity Moderate, N (%): 13 (43.3) | Hallucination, visual, worst severity Severe, Events: 5 | Hallucination, visual, worst severity Severe, N (%): 5 (16.7) | Hallucination, worst severity Mild, Events: 0 | Hallucination, worst severity Mild, N (%): 0 | Hallucination, worst severity Moderate, Events: 2 | Hallucination, worst severity Moderate, N (%): 2 (6.7) | Hallucination, worst severity Severe, Events: 0 | Hallucination, worst severity Severe, N (%): 0 | Headache, Events: 16 | Headache, N (%): 15 (50.0) | Headache, worst severity Mild, Events: 10 | Headache, worst severity Mild, N (%): 10 (33.3) | Headache, worst severity Moderate, Events: 5 | Headache, worst severity Moderate, N (%): 5 (16.7) | Headache, worst severity Severe, Events: 0 | Headache, worst severity Severe, N (%): 0 | Hypoaesthesia, Events: 4 | Hypoaesthesia, N (%): 3 (10.0) | Hypoaesthesia, worst severity Mild, Events: 4 | Hypoaesthesia, worst severity Mild, N (%): 3 (10.0) | Hypoaesthesia, worst severity Moderate, Events: 0 | Hypoaesthesia, worst severity Moderate, N (%): 0 | Hypoaesthesia, worst severity Severe, Events: 0 | Hypoaesthesia, worst severity Severe, N (%): 0
